Assay results reported in US10766894B2, “Aza-indazole compounds for use in tendon and/or ligament injuries” (NOVARTIS AG, priority 2016, dated 2020).
Read-outs that look alike come from different tables or passages of the source.

Columns and labels:
[1] = tested on: collagen type 1 (Col1a2) gene expression in rat tail tendon fascicles; test: Ex vivo assay, tendon fascicles, collagen type 1 mRNA (qPCR); type: cell-based, Sprague Dawley rat; conditions: 96 h
[2] = target: recombinant human Jak2 (aa808-1132) (Homo sapiens (Human), UniProt O60674); test: Kinase panel, substrate peptide phosphorylation (Caliper mobility shift), JAK2; type: biochemical
[3] = target: recombinant human Jak3 (aa811-1124) (Homo sapiens (Human), UniProt P52333); test: Kinase panel, substrate peptide phosphorylation (Caliper mobility shift), JAK3; type: biochemical
[4] = tested on: Tenomodulin (Tnmd) gene expression in rat tail tendon fascicles; test: Ex vivo assay, tendon fascicles, Tenomodulin mRNA (qPCR); type: cell-based, Sprague Dawley rat; conditions: 96 h
[5] = tested on: Scleraxis (Scx) gene expression in rat tail tendon fascicles; test: Ex vivo assay, tendon fascicles, Scleraxis mRNA (qPCR); type: cell-based, Sprague Dawley rat; conditions: 96 h
[6] = target: recombinant human Tyk2 (aa888-1187) (Homo sapiens (Human), UniProt P29597); test: Kinase panel, substrate peptide phosphorylation (Caliper mobility shift), TYK2; type: biochemical; conditions: 3 nM kinase, 45 uM ATP, 60 min at 30° C.
[7] = target: recombinant human Jak1 (aa 866-1154) (Homo sapiens (Human), UniProt P23458); test: Kinase panel, substrate peptide phosphorylation (Caliper mobility shift), JAK1; type: biochemical; conditions: 3 nM kinase, 45 uM ATP, 60 min at 30° C.
[8] = tested on: mouse immortalized TT-D6 Scx-luciferase (ScxL) cell line; transcriptional activation of Scleraxis (Scx) gene; test: SCX-LUC in vitro assay (scleraxis promoter luciferase reporter); type: cell-based; conditions: Mus musculus, 96 h
[9] = Cumulative release from PLGA microparticle formulations in PBS buffer; type: physicochemical; conditions: incorporated into PLGA microparticles, PBS buffer pH 7.4, 1% Tween 20
Source text: In the current invention, the microparticles formulation contains a copolymer of DL-lactide and glycolide in a 50:50 molar ratio with an ester end group plus Test Compound A is used. The total amount of Test Compound A incorporated into the microparticles ranges from 2% to 10% (w/w). The microparticles are formulated to mean mass range in size from 5 to 25 microns. The population of microparticles is formulated to be delivered through a 22 gauges or higher needles (see Table A below). Organic solvent was used for preparation of microparticles were dichloromethane (DCM) and ethyl acetate (EA) either alone or in combination with methanol (MeOH) and/or dimethyl sulfoxide (DMSO) e.g., ratio of MeOH/DMSO from 5-15% in DCM or EA as primary solvent. Additional excipients may be added such as, but not limited to, carboxymethylcellulose sodium, mannitol and ploxamer to achieve isotonicity and promote syringeability.
(§1) Test Compound A incorporated into the microparticles provides an initial release (burst) of about 5-10% of drug over a period of 1 to 2 days, followed by a steady state release of drug over a period of 21 days (FIG. 1). In-vivo the microparticles could extend the release of Test Compound A over 4 weeks in a rat model.

[10] = In-vivo release from microparticles in a rat model
Source text: as §1

[11] = Rattus norvegicus, read-out: Ex vivo Col1a2 (EC50 uM)
[12] = Rattus norvegicus, read-out: Ex vivo Tnmd (EC50 uM)
[13] = Rattus norvegicus, read-out: Ex vivo SCX (EC50 uM)
[14] = Examples table, TT-D6 Scx-luciferase cells, 1 ng/ml TGFβ1, four days, read-out: Scx-Luc (EC50 μM)
[15] = Examples table, rat tail tendon fascicles, four days, delta-delta Ct, read-out: Ex vivo Col1a2 (EC50 μM)
[16] = Examples table, rat tail tendon fascicles, four days, delta-delta Ct, read-out: Ex vivo Tnmd (EC50 μM)
[17] = Examples table, rat tail tendon fascicles, four days, delta-delta Ct, read-out: Ex vivo Scx (EC50 μM)

recombinant human Tyk2 (aa888-1187), sequence (P29597 888-1187): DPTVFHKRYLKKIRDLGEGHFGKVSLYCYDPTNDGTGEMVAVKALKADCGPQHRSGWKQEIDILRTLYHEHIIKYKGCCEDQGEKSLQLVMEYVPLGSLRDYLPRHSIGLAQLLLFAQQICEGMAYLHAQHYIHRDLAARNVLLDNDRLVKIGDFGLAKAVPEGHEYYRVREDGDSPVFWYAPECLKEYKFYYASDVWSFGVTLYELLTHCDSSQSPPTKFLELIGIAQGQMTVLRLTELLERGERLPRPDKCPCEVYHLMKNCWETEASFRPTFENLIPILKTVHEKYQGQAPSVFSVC
recombinant human Jak2 (aa808-1132), sequence (O60674 808-1132): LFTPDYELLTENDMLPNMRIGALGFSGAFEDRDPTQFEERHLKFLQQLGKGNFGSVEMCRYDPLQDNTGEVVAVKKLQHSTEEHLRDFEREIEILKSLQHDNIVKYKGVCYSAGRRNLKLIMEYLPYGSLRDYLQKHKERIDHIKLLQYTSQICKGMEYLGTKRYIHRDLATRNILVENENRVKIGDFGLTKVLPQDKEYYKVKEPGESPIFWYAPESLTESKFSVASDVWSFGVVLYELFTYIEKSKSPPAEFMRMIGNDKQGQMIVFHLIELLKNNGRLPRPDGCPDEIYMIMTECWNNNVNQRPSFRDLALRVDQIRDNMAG
recombinant human Jak3 (aa811-1124), sequence (P52333 811-1124 limits assumed): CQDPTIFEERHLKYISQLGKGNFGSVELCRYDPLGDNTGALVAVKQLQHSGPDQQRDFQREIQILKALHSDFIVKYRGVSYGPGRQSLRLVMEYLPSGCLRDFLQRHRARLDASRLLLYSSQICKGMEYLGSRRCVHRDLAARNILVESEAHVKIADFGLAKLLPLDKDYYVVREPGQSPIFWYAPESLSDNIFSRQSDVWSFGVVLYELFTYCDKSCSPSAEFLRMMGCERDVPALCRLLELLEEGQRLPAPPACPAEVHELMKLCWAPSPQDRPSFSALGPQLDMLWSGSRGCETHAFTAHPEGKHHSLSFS
recombinant human Jak1 (aa 866-1154), sequence (P23458 866-1154): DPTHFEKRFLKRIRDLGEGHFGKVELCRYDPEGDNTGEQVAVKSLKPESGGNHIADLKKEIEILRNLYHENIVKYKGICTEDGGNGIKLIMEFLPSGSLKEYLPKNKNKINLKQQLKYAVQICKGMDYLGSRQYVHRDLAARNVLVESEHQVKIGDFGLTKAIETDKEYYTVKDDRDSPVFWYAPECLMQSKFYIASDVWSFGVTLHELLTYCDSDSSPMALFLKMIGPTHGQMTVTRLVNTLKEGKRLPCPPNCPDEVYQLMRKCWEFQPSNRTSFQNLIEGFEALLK

| Structure (SMILES) | EC50 [8, 14] | EC50 [1, 15] | EC50 [4, 16] | EC50 [5, 17] | also measured |
| --- | --- | --- | --- | --- | --- |
| N#C[C@@H]1C[C@H](N2CCC2)CC[C@H]1n1cc(C(N)=O)c(Nc2ccc(C(F)(F)F)cc2)n1 | – | – | – | – | EC50 [1, 11]: 3.65 µM; IC50 [2]: 0.24 µM; IC50 [3]: 10 µM; EC50 [4, 12]: 5.76 µM; EC50 [5, 13]: 5.63 µM; IC50 [6]: 0.12 µM; IC50 [7]: 0.002 µM |
| Cc1cc(S(=O)(=O)N[C@H]2C[C@](O)(C(F)(F)F)C2)ccc1-c1ccc2[nH]nc(N)c2n1 [Example 2, 4-(3-amino-1H-pyrazolo[4,3-b]pyridin-5-yl)-N-((1s,3s)-3-hydroxy-3-(trifluoromethyl)cyclobutyl)-3-methylbenzenesulfonamide] | 0.376 µM | – | – | – | period of steady state release of drug ([9]; after initial burst): 21 days; initial release (burst) of drug ([9]; over a period of 1 to 2 days): 5-10%; extended release in-vivo [10]: 4 weeks |
| N#C[C@H]1C[C@H](O)CC[C@@H]1n1cc(C(N)=O)c(Nc2ccc(C(F)(F)F)cc2)n1 [reference compound] | – | – | – | – | EC50 ([8]; read-out: Scx-Luc (EC50 uM)): 2.06 µM; EC50 [1, 11]: 3.97 µM; IC50 [2]: 0.15 µM; IC50 [3]: 10 µM; EC50 [4, 12]: 3.82 µM; EC50 [5, 13]: 5.65 µM; IC50 [6]: 0.11 µM; IC50 [7]: 0.004 µM |
| N#C[C@H]1C[C@@H](N2CCC2)CC[C@@H]1n1cc(C(N)=O)c(Nc2ccc(C(F)(F)F)cc2)n1 [reference compound] | – | – | – | – | EC50 ([8]; read-out: Scx-Luc (EC50 uM)): 2.05 µM; EC50 [1, 11]: 0.42 µM; IC50 [2]: 2.7 µM; IC50 [3]: 10 µM; EC50 [4, 12]: 0.08 µM; EC50 [5, 13]: 1.16 µM; IC50 [6]: 1.8 µM; IC50 [7]: 0.04 µM |
| Cc1cc(S(=O)(=O)N(C)[C@H]2C[C@](O)(C(F)(F)F)C2)ccc1-c1ccc2[nH]nc(N)c2n1 [Example 9, 4-(3-amino-1H-pyrazolo[4,3-b]pyridin-5-yl)-N-((1s,3s)-3-hydroxy-3-(trifluoromethyl)cyclobutyl)-N,3-dimethylbenzenesulfonamide] | 0.46 µM | 0.577 µM | 2.14 µM | 2.27 µM | – |
| Nc1n[nH]c2ccc(-c3ccc(S(=O)(=O)NCCO)cc3Cl)nc12 [Example 72, 4-(3-amino-1H-pyrazolo[4,3-b]pyridin-5-yl)-3-chloro-N-(2-hydroxyethyl)benzenesulfonamide] | 4.09 µM | 3.28 µM | 3.42 µM | 3.94 µM | – |
| CC(O)(C1CN(S(=O)(=O)c2ccc(-c3ccc4[nH]nc(N)c4n3)c(Cl)c2)CCN1)C(F)(F)F (centres unmarked) [Example 89, 2-(4-((4-(3-amino-1H-pyrazolo[4,3-b]pyridin-5-yl)-3-chlorophenyl)sulfonyl)piperazin-2-yl)-1,1,1-trifluoropropan-2-ol] | 2.19 µM | 7.27 µM | 5.01 µM | 4.44 µM | – |
| Nc1n[nH]c2ccc(-c3ccc(S(=O)(=O)Nc4ccccc4)cc3Cl)nc12 [Example 38, 4-(3-amino-1H-pyrazolo[4,3-b]pyridin-5-yl)-3-chloro-N-phenylbenzenesulfonamide] | 0.61 µM | 0.396 µM | 1.89 µM | 0.188 µM | – |
| Cc1cc(S(=O)(=O)Nc2ccccc2)ccc1-c1ccc2[nH]nc(N)c2n1 [Example 16, 4-(3-amino-1H-pyrazolo[4,3-b]pyridin-5-yl)-3-methyl-N-phenylbenzenesulfonamide] | 0.61 µM | 4.65 µM | 2.81 µM | 3.86 µM | – |
| Nc1n[nH]c2ccc(-c3ccc(S(=O)(=O)N[C@@H]4CCC[C@@H]4O)cc3Cl)nc12 [Example 7, 4-(3-amino-1H-pyrazolo[4,3-b]pyridin-5-yl)-3-chloro-N-((1R,2S)-2-hydroxycyclopentyl)benzenesulfonamide] | 0.305 µM | 2.06 µM | 1.68 µM | 1.6 µM | – |
| Nc1n[nH]c2ccc(-c3ccc(NS(=O)(=O)Cc4ccccc4)cc3Cl)nc12 [Example 59, N-(4-(3-amino-1H-pyrazolo[4,3-b]pyridin-5-yl)-3-chlorophenyl)-1-phenylmethanesulfonamide] | 4.32 µM | 5.71 µM | 4.61 µM | > 10 µM | – |
| CC(=O)N1CCOc2ccc(S(=O)(=O)Nc3ccc(-c4ccc5[nH]nc(N)c5n4)c(Cl)c3)cc21 [Example 86, 4-acetyl-N-(4-(3-amino-1H-pyrazolo[4,3-b]pyridin-5-yl)-3-chlorophenyl)-3,4-dihydro-2H-benzo[b][1,4]oxazine-6-sulfonamide] | 5.39 µM | > 10 µM | 4.86 µM | > 10 µM | – |
